# Earlier results, collected in patent US11103503B2, “Pharmaceutical compositions of Lurasidone” (SLAYBACK PHARMA LLC, priority 2019, dated 2021).
# Columns and labels:
# [1] = fed state
compound,measurement,setting,value
"O=C1[C@@H]2[C@H]3CC[C@H](C3)[C@@H]2C(=O)N1C[C@@H]1CCCC[C@H]1CN1CCN(c2nsc3ccccc23)CC1 [Lurasidone, N-4-4-(1,2-benzisothiazol-3-yl)-1-piperazinyl-(2R,3R)-2,3-tetramethylene-butyl-(1R,2S,3R,4'S)-2,3-bicyclo[2.2.1]heptanedicarboxyimide]",solubility in water,,very slightly soluble
same,administered dose absorbed,[1],9-19%
